In the CATMoS acute toxicity set (Mansouri et al. 2021):

Assay: Very toxic (VT; LD50≤50mg/kg vs. all others)
Conditions: rat; in vivo; po
From the text: (§1) […]The data set underlying the modeling effort for this project was initially compiled by NICEATM and U.S. EPA’s CCTE. Briefly, LD50 data were collected from rat acute oral systemic toxicity tests, including limit tests, ranges/confidence intervals, and discrete LD50 values. The full data set included 21,200 LD50 entries for 15,688 substances. […] Data were reviewed to ensure that LD50 values with obvious errors in the extracted data such as unit conversion errors (e.g., comma and decimal separator misplacements) were either fixed or removed. After this review, 16,209 LD50 values remained. Many of the chemicals represented had multiple LD50 entries, requiring that a single representative value per Chemical Abstracts Service Registry Number (CASRN) identifier be defined to facilitate modeling efforts. Based on ATWG feedback and to define the representative LD50 as a protective value while accounting for the distribution across multiple LD50s, the median of the lowest quartile was computed using only discrete LD50 values (omitting limit test data and range and confidence interval data). A detailed summary of the data compilation is available online on the NICEATM webpage dedicated to the collaborative modeling project (NTP 2020).
(§2) […][…] For categorical designations, limit test and range/confidence interval LD50 data were integrated wherever possible. As such, the number of chemicals with end point values/calls varies across the modeling end points (Table 3) based on whether chemicals had representative LD50 values and/or other data. If a chemical had both, the representative value was used to determine categorical calls rather than limit test data. Some data were useable only for certain end points and categories depending on the thresholds. For example, ranges that spanned multiple hazard categories were considered only for the binary (very toxic/nontoxic) end points and omitted from rendering a determination for hazard category assignment.
(§3) […]The final data set comprising 11,992 chemicals was split into training and evaluation sets […], respectively. This process was performed semirandomly by ordering chemicals based on the five end points (categorical and continuous LD50 values) and partitioning every fourth record into the evaluation set accordingly. This approach was taken to ensure an equivalent distribution of the LD50 values and the different hazard categories between the training and the evaluation sets without supervised sampling of the chemicals based on structures (Figure 1A). The sources of the chemical structures were also kept equivalent between the two sets, with chemical structures obtained from DSSTox, being the highest quality, representing over 75% of each set (Figure 1B).

SMILES | very_toxic
Nc1ccc(N)c2c1C(=O)c1c(N)ccc(N)c1C2=O | FALSE (not_very_toxic)
CCCCCCCCCCCCCCCCCCOP1OCC2(CO1)COP(OCCCCCCCCCCCCCCCCCC)OC2 (stereo not given) | FALSE (not_very_toxic)
CNC1=C(c2cccc(C(F)(F)F)c2)C(=O)C(c2ccccc2)O1 (stereo not given) | FALSE (not_very_toxic)
CCCCCCCCCCCCCC[N+](C)(C)[O-] | FALSE (not_very_toxic)
CSc1c(C)cc(O)cc1C | FALSE (not_very_toxic)
O=C1NC(=O)C2CCCC12 (stereo not given) | FALSE (not_very_toxic)
COCCOCCOCCOB(OCCOCCOCCOC)OCCOCCOCCOC | FALSE (not_very_toxic)

Assay: rat acute oral toxicity
Conditions: in vivo

SMILES | LD50 [mg/kg]
OCC(O)CO | 9080
CC(=O)O | 1940
Oc1ccccc1 | 317
Cc1ccc(S(=O)(=O)O)cc1 | 400
c1ccc2[nH]nnc2c1 | 500
Nc1nc(N)nc(N)n1 | 3160
Nc1ccc(S(=O)(=O)O)cc1 | 12300
O=C1CCCCCN1 | 1200
CCCCCCCC/C=C\CCCCCCCC(=O)O | 25000
O=S(=O)(O)c1cc(Nc2nc(Nc3ccccc3)nc(N(CCO)CCO)n2)ccc1/C=C/c1ccc(Nc2nc(Nc3ccccc3)nc(N(CCO)CCO)n2)cc1S(=O)(=O)O | 12100
N[C@@H](CCC(=O)O)C(=O)O | 15800
CCC[C@@H]1C[C@@H](C(=O)N[C@@H]([C@H]2O[C@H](SC)[C@H](O)[C@@H](O)[C@H]2O)[C@@H](C)O)N(C)C1 | 1000
CC1OC(=O)C(C)OC1=O (stereo not given) | 3540
NCCNCCNCCNCCN | 2100
NC(N)=O | 8470
O=Cc1ccco1 | 100
C=C(C)C(=O)OCCCC | 16000
CC(=O)CC(C)(C)O | 2520
Nc1c(Cl)c(F)nc(OCC(=O)O)c1Cl | 2400
CC(O)COC(C)CO (stereo not given) | 2280
C1CCC2CCCCC2C1 (stereo not given) | 4170

SMILES | LD50 [mg/kg]
CC1(C)[C@H](C(=O)O[C@H](C#N)c2cccc(Oc3ccccc3)c2)[C@@H]1C(Br)C(Br)(Br)Br (stereo not given in full) | 99
CCCCOC(=O)COc1ccc(Cl)cc1Cl | 600
CCC(CC)Nc1c([N+](=O)[O-])cc(C)c(C)c1[N+](=O)[O-] | 1050
CCCCOCN(C(=O)CCl)c1c(CC)cccc1CC | 1740
CNC(=O)ON=C(SC)C(=O)N(C)C | 2.5
CCCC1COC(Cn2cncn2)(c2ccc(Cl)cc2Cl)O1 (stereo not given) | 1500
CCCS | 1730
ClC(Cl)c1ccccc1 | 3250
CC(=O)N[C@@H](CS)C(=O)O | 3000
C#CCN1CC(=O)N(COC(=O)[C@@H]2[C@@H](C=C(C)C)C2(C)C)C1=O | 900
CC(C)OC(=O)Nc1ccccc1 | 1000
O=C(O)c1cc(Oc2ccc(C(F)(F)F)cc2Cl)ccc1[N+](=O)[O-] | 1300
CC[C@H]1OC(=O)[C@H](C)[C@@H](O[C@H]2C[C@@](C)(OC)[C@@H](O)[C@H](C)O2)[C@H](C)[C@@H](O[C@@H]2O[C@H](C)C[C@H](N(C)C)[C@H]2O)[C@](C)(O)C[C@@H](C)C(=O)[C@H](C)[C@@H](O)[C@]1(C)O | 4600
O=C1c2ccccc2C(=O)C1C(=O)C(c1ccccc1)c1ccc(Cl)cc1 (stereo not given) | 2.1
CN(CC[C@H](N)CC(O)=N[C@H]1C=C[C@H](n2ccc(=N)nc2O)O[C@@H]1C(=O)O)C(=N)N | 53.3
CCN(CC)CC | 460
CC1=CCC(O)(C(C)C)CC1 (stereo not given) | 1300
O=C1OC(=O)C2C1C1(Cl)C(Cl)=C(Cl)C2(Cl)C1(Cl)Cl (stereo not given) | 2130
Cc1ccc(N)cc1C | 810
CCOC(=O)CC(SP(=S)(OC)OC)C(=O)OCC (stereo not given) | 1190
Cc1cc(Cl)ccc1OCC(=O)O | 700

SMILES | LD50 [mg/kg]
CCCCC(CC)COC(=O)CC(C(=O)OCC(CC)CCCC)S(=O)(=O)O (stereo not given) | 1900
C=CCOC(=O)c1ccccc1C(=O)OCC=C | 656
COc1nn(CSP(=S)(OC)OC)c(=O)s1 | 20
Cc1ccccc1S(N)(=O)=O | 2400
CCOC(=O)C(O)(c1ccc(Cl)cc1)c1ccc(Cl)cc1 | 700
CC(C)(C)C(O)(CCc1ccc(Cl)cc1)Cn1cncn1 (stereo not given) | 1700
CCCC1CO1 (stereo not given) | 1330
O=C(O)c1cccnc1 | 4500
CON(C)C(=O)Nc1ccc(Cl)c(Cl)c1 | 1150
CCC(=O)O | 2600
COCCOCCOCCO | 11300
CC(=O)c1ccccc1 | 858
C=CN1CCCC1=O | 1020
CC(C#N)CCC#N (stereo not given) | 170
CI | 76
CCNP(=S)(OC)O/C(C)=C/C(=O)OC(C)C (stereo not given) | 59.5
O=P(Oc1ccccc1)(Oc1ccccc1)Oc1ccccc1 | 3500
OCC#CCO | 104
Cc1ccc(S(N)(=O)=O)cc1 | 2330

Assay: EPA categories
Conditions: rat; in vivo; po
From the text: as §1, §2, §3

SMILES | EPA category
CCO[SiH](OCC)OCC | 3
Cc1cccc(S(=O)(=O)O)c1C | 3
O=C1c2cccc(Sc3ccccc3)c2C(=O)c2c(Sc3ccccc3)cccc21 | 3
O=[N+]([O-])c1cc(N(CCO)CCO)ccc1NCCO | 3
NC(N)=Nc1ccccc1 | 3
CC(Cl)(Cl)CC(Cl)(Cl)Cl | 2
Cc1cncc(C)c1 | 2

Assay: GHS categories as the set defines them, by LD50: 1 up to 5, 2 up to 50, 3 up to 300, 4 up to 2000, 5 above 2000 mg/kg
Conditions: rat; in vivo; po

SMILES | GHS category
OCC(O)CO | 5
CC(=O)O | 5
Oc1ccccc1 | 5
Cc1ccc(S(=O)(=O)O)cc1 | 5
c1ccc2[nH]nnc2c1 | 4
Nc1nc(N)nc(N)n1 | 5
Nc1ccc(S(=O)(=O)O)cc1 | 5
O=C1CCCCCN1 | 4
CCCCCCCC/C=C\CCCCCCCC(=O)O | 5
O=S(=O)(O)c1cc(Nc2nc(Nc3ccccc3)nc(N(CCO)CCO)n2)ccc1/C=C/c1ccc(Nc2nc(Nc3ccccc3)nc(N(CCO)CCO)n2)cc1S(=O)(=O)O | 5
N[C@@H](CCC(=O)O)C(=O)O | 5
CCC[C@@H]1C[C@@H](C(=O)N[C@@H]([C@H]2O[C@H](SC)[C@H](O)[C@@H](O)[C@H]2O)[C@@H](C)O)N(C)C1 | 5
CC1OC(=O)C(C)OC1=O (stereo not given) | 5
NCCNCCNCCNCCN | 4
NC(N)=O | 5
CCN(CC)CC | 5
C=CN1CCCC1=O | 5

Assay: Nontoxic (NT; LD50>2,000mg/kg vs. all others)
Conditions: rat; in vivo; po
From the text: as §1, §2, §3

SMILES | nontoxic
Cc1cc(C)c(O)c(C(C)(C)C)c1 | FALSE (not_nontoxic)
CO[Si](C)(CCCCl)OC | FALSE (not_nontoxic)
CCCCCCCCCCCCCCCC[Si](Cl)(Cl)Cl | FALSE (not_nontoxic)
CCC[Si](Cl)(Cl)Cl | FALSE (not_nontoxic)
O=CC1=C(Cl)C(=CO)CCC1 | FALSE (not_nontoxic)
CC(C)OC(=O)NP(N)(N)=O | FALSE (not_nontoxic)
COC1CCCC1 | FALSE (not_nontoxic)
CN(C)CCOCCOC(=O)NCC1(C)CC(NC(=O)OCCOCCN(C)C)CC(C)(C)C1 (stereo not given) | FALSE (not_nontoxic)
CC12CC(N3CCOCC3)C(O)CC1CCC1C2CCC2(C)C(O)C(N3CCCC3)CC12 (stereo not given) | FALSE (not_nontoxic)
CC1(C(=O)Cl)CCCCC1 | FALSE (not_nontoxic)
Cc1ccc(C(C)(C)C)c(O)c1 | FALSE (not_nontoxic)
C1CCC2=NCCCN2CC1 | FALSE (not_nontoxic)
COc1c(C)cnc(CCl)c1C | FALSE (not_nontoxic)
CCC(C)c1cccc(C(C)CC)c1O (stereo not given) | FALSE (not_nontoxic)
CN(C)C=CC(=O)c1cccnc1 | FALSE (not_nontoxic)
CCOC(=O)C(C#N)=CN | FALSE (not_nontoxic)
CO[Si](C)(CN=C=O)OC | FALSE (not_nontoxic)
CN(C(=O)CCl)c1ccc([N+](=O)[O-])cc1 | FALSE (not_nontoxic)
CCCCCCCC[N+](C)(CCCCCCCC)CCCCCCCC | FALSE (not_nontoxic)
O=C1c2ccccc2C(=O)N1[C@@H]1CCCNC1 | FALSE (not_nontoxic)
C[Si](Cl)(Cl)CCCCl | FALSE (not_nontoxic)
CC(CC(C)(C)C)C[Si](Cl)(Cl)Cl (stereo not given) | FALSE (not_nontoxic)
C=CCOC(=O)C(C)(C)O | FALSE (not_nontoxic)
